PubChem BioAssay AID1259407 (Chemical Carcinogenesis Research Information System (CCRIS), 2018)
Active and inactive are the calls of the source. The rule behind the calls is not given here.

Tested on: CCRIS mutagenicity, Ames/micronucleus/aberration tests
Assay: CCRIS mutagenicity studies
[1] = Test System: AMES SALMONELLA TYPHIMURIUM, Strain/Indicator: TA98, Metabolic Activation: NONE, Method: PREINCUBATION
[2] = Test System: AMES SALMONELLA TYPHIMURIUM, Strain/Indicator: TA100, Metabolic Activation: NONE, Method: PREINCUBATION
[3] = Test System: AMES SALMONELLA TYPHIMURIUM, Strain/Indicator: TA1535, Metabolic Activation: NONE, Method: PREINCUBATION
[4] = Test System: AMES SALMONELLA TYPHIMURIUM, Strain/Indicator: TA100, Metabolic Activation: NONE, Method: STANDARD PLATE

With `CCCCOP(=O)(OCCCC)Oc1ccccc1` the mutagenic call (Test System: AMES SALMONELLA TYPHIMURIUM, Strain/Indicator: TA97, Metabolic Activation: HAMSTER, LIVER, S-9, AROCLOR 1254 (10%), Method: PREINCUBATION) was “inactive; negative”, the mutagenic call (Test System: AMES SALMONELLA TYPHIMURIUM, Strain/Indicator: TA97, Metabolic Activation: HAMSTER, LIVER, S-9, AROCLOR 1254 (30%), Method: PREINCUBATION) was “inactive; negative” and the mutagenic call (Test System: AMES SALMONELLA TYPHIMURIUM, Strain/Indicator: TA97, Metabolic Activation: NONE, Method: PREINCUBATION) was “inactive; negative”. For the same molecule, the mutagenic call (Test System: AMES SALMONELLA TYPHIMURIUM, Strain/Indicator: TA97, Metabolic Activation: RAT, LIVER, S-9, AROCLOR 1254 (10%), Method: PREINCUBATION) was “inactive; negative”, the mutagenic call (Test System: AMES SALMONELLA TYPHIMURIUM, Strain/Indicator: TA97, Metabolic Activation: RAT, LIVER, S-9, AROCLOR 1254 (30%), Method: PREINCUBATION) was “inactive; negative” and the mutagenic call (Test System: AMES SALMONELLA TYPHIMURIUM, Strain/Indicator: TA98, Metabolic Activation: HAMSTER, LIVER, S-9, AROCLOR 1254 (10%), Method: PREINCUBATION) was “inactive; negative”. The mutagenic call (Test System: AMES SALMONELLA TYPHIMURIUM, Strain/Indicator: TA98, Metabolic Activation: HAMSTER, LIVER, S-9, AROCLOR 1254 (30%), Method: PREINCUBATION) was “inactive; negative”, the mutagenic call [1] was “inactive; negative” and the mutagenic call (Test System: AMES SALMONELLA TYPHIMURIUM, Strain/Indicator: TA98, Metabolic Activation: RAT, LIVER, S-9, AROCLOR 1254 (10%), Method: PREINCUBATION) was “inactive; negative”. For the same molecule, the mutagenic call (Test System: AMES SALMONELLA TYPHIMURIUM, Strain/Indicator: TA98, Metabolic Activation: RAT, LIVER, S-9, AROCLOR 1254 (30%), Method: PREINCUBATION) was “inactive; negative”, the mutagenic call (Test System: AMES SALMONELLA TYPHIMURIUM, Strain/Indicator: TA100, Metabolic Activation: HAMSTER, LIVER, S-9, AROCLOR 1254 (10%), Method: PREINCUBATION) was “inactive; negative” and the mutagenic call (Test System: AMES SALMONELLA TYPHIMURIUM, Strain/Indicator: TA100, Metabolic Activation: HAMSTER, LIVER, S-9, AROCLOR 1254 (30%), Method: PREINCUBATION) was “inactive; negative”. For the same molecule, the mutagenic call [2] was “inactive; negative”, the mutagenic call (Test System: AMES SALMONELLA TYPHIMURIUM, Strain/Indicator: TA100, Metabolic Activation: RAT, LIVER, S-9, AROCLOR 1254 (10%), Method: PREINCUBATION) was “inactive; negative” and the mutagenic call (Test System: AMES SALMONELLA TYPHIMURIUM, Strain/Indicator: TA100, Metabolic Activation: RAT, LIVER, S-9, AROCLOR 1254 (30%), Method: PREINCUBATION) was “inactive; negative”. For the same molecule, the mutagenic call (Test System: AMES SALMONELLA TYPHIMURIUM, Strain/Indicator: TA1535, Metabolic Activation: HAMSTER, LIVER, S-9, AROCLOR 1254 (10%), Method: PREINCUBATION) was “inactive; negative”, the mutagenic call (Test System: AMES SALMONELLA TYPHIMURIUM, Strain/Indicator: TA1535, Metabolic Activation: HAMSTER, LIVER, S-9, AROCLOR 1254 (30%), Method: PREINCUBATION) was “inactive; negative” and the mutagenic call [3] was “inactive; negative”. For the same molecule, the mutagenic call (Test System: AMES SALMONELLA TYPHIMURIUM, Strain/Indicator: TA1535, Metabolic Activation: RAT, LIVER, S-9, AROCLOR 1254 (10%), Method: PREINCUBATION) was “inactive; negative” and the mutagenic call (Test System: AMES SALMONELLA TYPHIMURIUM, Strain/Indicator: TA1535, Metabolic Activation: RAT, LIVER, S-9, AROCLOR 1254 (30%), Method: PREINCUBATION) was “inactive; negative”.
`FC(F)(F)c1ccc(Cl)cc1` was tested, and the mutagenic call (Test System: AMES SALMONELLA TYPHIMURIUM, Strain/Indicator: TA98, Metabolic Activation: HAMSTER, LIVER, S-9, AROCLOR 1254, Method: STANDARD PLATE) was “inactive; negative”, the mutagenic call (Test System: AMES SALMONELLA TYPHIMURIUM, Strain/Indicator: TA98, Metabolic Activation: NONE, Method: STANDARD PLATE) was “inactive; negative” and the mutagenic call (Test System: AMES SALMONELLA TYPHIMURIUM, Strain/Indicator: TA98, Metabolic Activation: RAT, LIVER, S-9, AROCLOR 1254, Method: STANDARD PLATE) was “inactive; negative”. For the same molecule, the mutagenic call (Test System: AMES SALMONELLA TYPHIMURIUM, Strain/Indicator: TA100, Metabolic Activation: HAMSTER, LIVER, S-9, AROCLOR 1254, Method: STANDARD PLATE) was “inactive; negative”, the mutagenic call [4] was “inactive; negative” and the mutagenic call (Test System: AMES SALMONELLA TYPHIMURIUM, Strain/Indicator: TA100, Metabolic Activation: RAT, LIVER, S-9, AROCLOR 1254, Method: STANDARD PLATE) was “inactive; negative”. For the same molecule, the mutagenic call (Test System: AMES SALMONELLA TYPHIMURIUM, Strain/Indicator: TA1535, Metabolic Activation: HAMSTER, LIVER, S-9, AROCLOR 1254, Method: STANDARD PLATE) was “inactive; negative”, the mutagenic call (Test System: AMES SALMONELLA TYPHIMURIUM, Strain/Indicator: TA1535, Metabolic Activation: NONE, Method: STANDARD PLATE) was “inactive; negative” and the mutagenic call (Test System: AMES SALMONELLA TYPHIMURIUM, Strain/Indicator: TA1535, Metabolic Activation: RAT, LIVER, S-9, AROCLOR 1254, Method: STANDARD PLATE) was “inactive; negative”. For the same molecule, the mutagenic call (Test System: AMES SALMONELLA TYPHIMURIUM, Strain/Indicator: TA1537, Metabolic Activation: HAMSTER, LIVER, S-9, AROCLOR 1254, Method: STANDARD PLATE) was “inactive; negative”, the mutagenic call (Test System: AMES SALMONELLA TYPHIMURIUM, Strain/Indicator: TA1537, Metabolic Activation: NONE, Method: STANDARD PLATE) was “inactive; negative” and the mutagenic call (Test System: AMES SALMONELLA TYPHIMURIUM, Strain/Indicator: TA1537, Metabolic Activation: RAT, LIVER, S-9, AROCLOR 1254, Method: STANDARD PLATE) was “inactive; negative”. For the same molecule, the mutagenic call (Test System: AMES SALMONELLA TYPHIMURIUM, Strain/Indicator: TA1538, Metabolic Activation: HAMSTER, LIVER, S-9, AROCLOR 1254, Method: STANDARD PLATE) was “inactive; negative”, the mutagenic call (Test System: AMES SALMONELLA TYPHIMURIUM, Strain/Indicator: TA1538, Metabolic Activation: NONE, Method: STANDARD PLATE) was “inactive; negative” and the mutagenic call (Test System: AMES SALMONELLA TYPHIMURIUM, Strain/Indicator: TA1538, Metabolic Activation: RAT, LIVER, S-9, AROCLOR 1254, Method: STANDARD PLATE) was “inactive; negative”. The mutagenic call (Test System: MOUSE LYMPHOMA, Strain/Indicator: L5178Y (TK+/TK-), Metabolic Activation: NONE, Method: SUSPENSION/PLATE) was “inactive; negative. reevaluation of results: negative” and the mutagenic call (Test System: MOUSE LYMPHOMA, Strain/Indicator: L5178Y (TK+/TK-), Metabolic Activation: RAT, LIVER, S-9, AROCLOR 1254, Method: SUSPENSION/PLATE) was “inactive; negative. reevaluation of results: equivocal”.
In the case of `N[C@@H](CSC(Cl)=C(Cl)Cl)C(=O)O`, the mutagenic call [2] is reported as “active; positive”, the mutagenic call [4] is reported as “active; positive” and the mutagenic call (Test System: AMES SALMONELLA TYPHIMURIUM, Strain/Indicator: TA100, Metabolic Activation: RAT, KIDNEY, S-9, AROCLOR 1254, Method: STANDARD PLATE) is reported as “active; positive”. The mutagenic call (Test System: AMES SALMONELLA TYPHIMURIUM, Strain/Indicator: TA2638, Metabolic Activation: NONE, Method: PREINCUBATION) was “inactive; negative”.
For `OC1CCCCC1`, the mutagenic call (Test System: AMES SALMONELLA TYPHIMURIUM, Strain/Indicator: TA98, Metabolic Activation: HAMSTER, LIVER, S-9, AROCLOR 1254, Method: PREINCUBATION) was “inactive; negative”, the mutagenic call [1] was “inactive; negative” and the mutagenic call (Test System: AMES SALMONELLA TYPHIMURIUM, Strain/Indicator: TA98, Metabolic Activation: RAT, LIVER, S-9, AROCLOR 1254, Method: PREINCUBATION) was “inactive; negative”. For the same molecule, the mutagenic call (Test System: AMES SALMONELLA TYPHIMURIUM, Strain/Indicator: TA100, Metabolic Activation: HAMSTER, LIVER, S-9, AROCLOR 1254, Method: PREINCUBATION) was “inactive; negative”, the mutagenic call [2] was “inactive; negative” and the mutagenic call (Test System: AMES SALMONELLA TYPHIMURIUM, Strain/Indicator: TA100, Metabolic Activation: RAT, LIVER, S-9, AROCLOR 1254, Method: PREINCUBATION) was “inactive; negative”. For the same molecule, the mutagenic call (Test System: AMES SALMONELLA TYPHIMURIUM, Strain/Indicator: TA1535, Metabolic Activation: HAMSTER, LIVER, S-9, AROCLOR 1254, Method: PREINCUBATION) was “inactive; negative”, the mutagenic call [3] was “inactive; negative” and the mutagenic call (Test System: AMES SALMONELLA TYPHIMURIUM, Strain/Indicator: TA1535, Metabolic Activation: RAT, LIVER, S-9, AROCLOR 1254, Method: PREINCUBATION) was “inactive; negative”. The mutagenic call (Test System: AMES SALMONELLA TYPHIMURIUM, Strain/Indicator: TA1537, Metabolic Activation: HAMSTER, LIVER, S-9, AROCLOR 1254, Method: PREINCUBATION) was “inactive; negative”, the mutagenic call (Test System: AMES SALMONELLA TYPHIMURIUM, Strain/Indicator: TA1537, Metabolic Activation: NONE, Method: PREINCUBATION) was “inactive; negative” and the mutagenic call (Test System: AMES SALMONELLA TYPHIMURIUM, Strain/Indicator: TA1537, Metabolic Activation: RAT, LIVER, S-9, AROCLOR 1254, Method: PREINCUBATION) was “inactive; negative”.
